Laboratory results from ChEMBL document CHEMBL1125640.

Assay: Hill coefficient value of the compound

## COC(=O)[C@@H]1[C@@H](OC(=O)c2ccccc2)CC2CC[C@H]1N2C
  Hill coefficient: 0.95

## COC(=O)[C@@H]1[C@H]2CCC(C[C@H]1OC(=O)c1ccccc1)N2C
  Hill coefficient: 1.19

## COC(=O)[C@H]1[C@@H](OC(=O)c2ccccc2)CC2CC[C@H]1N2C
  Hill coefficient: 2.6

## COC(=O)[C@H]1[C@H]2CCC(C[C@H]1OC(=O)c1ccccc1)N2C
  Hill coefficient: 1.3

## COC(=O)[C@H]1[C@@H](OC(=O)c2ccccc2)C[C@@H]2CC[C@H]1N2C (stereo in doubt; 1)
  Hill coefficient: 0.91

## COC(=O)[C@H]1[C@@H](OC(=O)c2ccccc2)C[C@@H]2CC[C@H]1N2C (stereo in doubt; 2)
  Hill coefficient: 0.96

## COC(=O)C1C2CC[C@H](C[C@H]1OC(=O)c1ccccc1)N2C (stereo in doubt; 3)
  Hill coefficient: 2.81

## COC(=O)C1C2CC[C@H](C[C@H]1OC(=O)c1ccccc1)N2C (stereo in doubt; 4)
  Hill coefficient: 0.92
